Test results from the NIST ThermoML archive (doi:10.1016/j.jct.2004.12.014).
Numbers after ± are expanded uncertainties.

Experiments:
[1] = excess molar enthalpy (molar enthalpy of mixing); xn = mol fraction of the nth substance listed; conditions: 318.15 K, 101 kPa, Liquid
[2] = xn = mol fraction of the nth substance listed; conditions: 318.15 K, 101 kPa, Liquid

CCOC(=O)CC [ethyl propanoate] + CCCCCCCCC
Conditions | excess molar enthalpy, [1] [kJ/mol] | excess molar volume, [2] [m3/mol]
x1 = 0.0376 | – | 1.65e-07 ± 1.6e-08
x1 = 0.0817 | 0.385 ± 0.0077 | –
x1 = 0.0926 | – | 3.58e-07 ± 1.7e-08
x1 = 0.1719 | 0.705 ± 0.013 | –
x1 = 0.1744 | – | 6.18e-07 ± 1.8e-08
x1 = 0.2554 | – | 8.2e-07 ± 1.9e-08
x1 = 0.2598 | 0.967 ± 0.017 | –
x1 = 0.3255 | – | 9.43e-07 ± 2e-08
x1 = 0.3403 | 1.14 ± 0.019 | –
x1 = 0.3925 | – | 1.022e-06 ± 2e-08
x1 = 0.4145 | 1.24 ± 0.021 | –
x1 = 0.457 | – | 1.075e-06 ± 2e-08
x1 = 0.4797 | 1.29 ± 0.022 | –
x1 = 0.4909 | 1.3 ± 0.022 | –
x1 = 0.523 | – | 1.077e-06 ± 2.1e-08
x1 = 0.5379 | 1.3 ± 0.022 | –
x1 = 0.5764 | 1.27 ± 0.021 | –
x1 = 0.5826 | – | 1.066e-06 ± 2e-08
x1 = 0.5876 | 1.27 ± 0.021 | –
x1 = 0.6277 | 1.22 ± 0.02 | –
x1 = 0.6348 | – | 1.027e-06 ± 2e-08
x1 = 0.6791 | 1.13 ± 0.019 | –
x1 = 0.6882 | – | 9.47e-07 ± 2e-08
x1 = 0.732 | 1.02 ± 0.017 | –
x1 = 0.7398 | – | 8.52e-07 ± 1.9e-08
x1 = 0.7883 | 0.866 ± 0.015 | 7.57e-07 ± 1.9e-08
x1 = 0.8344 | – | 6.26e-07 ± 1.8e-08
x1 = 0.8451 | 0.68 ± 0.012 | –
x1 = 0.878 | – | 5.01e-07 ± 1.8e-08
x1 = 0.9016 | 0.464 ± 0.0089 | –
x1 = 0.9181 | – | 3.41e-07 ± 1.7e-08
x1 = 0.9517 | 0.247 ± 0.0056 | –
x1 = 0.9584 | – | 1.81e-07 ± 1.6e-08

CCCCOC(=O)CC [butyl propanoate] + CCCCCCCCCCCCC
Conditions | excess molar enthalpy [kJ/mol] | excess molar volume [m3/mol]
[1], x1 = 0.0777 | 0.316 ± 0.0066 | –
[1], x1 = 0.152 | 0.553 ± 0.01 | –
[1], x1 = 0.2315 | 0.774 ± 0.014 | –
[1], x1 = 0.3105 | 0.95 ± 0.016 | –
[1], x1 = 0.3857 | 1.06 ± 0.018 | –
[1], x1 = 0.4542 | 1.11 ± 0.019 | –
[1], x1 = 0.5154 | 1.13 ± 0.019 | –
[1], x1 = 0.5619 | 1.12 ± 0.019 | –
[1], x1 = 0.6157 | 1.09 ± 0.018 | –
[1], x1 = 0.6596 | 1.02 ± 0.017 | –
[1], x1 = 0.7081 | 0.942 ± 0.016 | –
[1], x1 = 0.7591 | 0.821 ± 0.014 | –
[1], x1 = 0.8107 | 0.69 ± 0.012 | –
[1], x1 = 0.857 | 0.552 ± 0.01 | –
[1], x1 = 0.9081 | 0.378 ± 0.0075 | –
[1], x1 = 0.9555 | 0.195 ± 0.0048 | –
[2], x1 = 0.0406 | – | 1.23e-07 ± 1.6e-08
[2], x1 = 0.0973 | – | 2.84e-07 ± 1.7e-08
[2], x1 = 0.1791 | – | 4.62e-07 ± 1.8e-08
[2], x1 = 0.2615 | – | 6.48e-07 ± 1.9e-08
[2], x1 = 0.3352 | – | 7.42e-07 ± 1.9e-08
[2], x1 = 0.4049 | – | 8.02e-07 ± 1.9e-08
[2], x1 = 0.4702 | – | 8.32e-07 ± 1.9e-08
[2], x1 = 0.5333 | – | 8.34e-07 ± 1.9e-08
[2], x1 = 0.5918 | – | 8.19e-07 ± 1.9e-08
[2], x1 = 0.6472 | – | 7.81e-07 ± 1.9e-08
[2], x1 = 0.6989 | – | 7.36e-07 ± 1.9e-08
[2], x1 = 0.7487 | – | 6.45e-07 ± 1.8e-08
[2], x1 = 0.7961 | – | 5.77e-07 ± 1.8e-08
[2], x1 = 0.84 | – | 4.79e-07 ± 1.8e-08
[2], x1 = 0.8821 | – | 3.67e-07 ± 1.7e-08
[2], x1 = 0.9219 | – | 2.68e-07 ± 1.7e-08
[2], x1 = 0.9617 | – | 1.52e-07 ± 1.6e-08

CCCCCCCCCCCCC [tridecane] + CCOC(=O)CC
Conditions | excess molar enthalpy [kJ/mol] | excess molar volume [m3/mol]
[1], x2 = 0.0944 | 0.467 ± 0.0089 | –
[1], x2 = 0.189 | 0.842 ± 0.015 | –
[1], x2 = 0.282 | 1.15 ± 0.019 | –
[1], x2 = 0.366 | 1.36 ± 0.023 | –
[1], x2 = 0.4354 | 1.49 ± 0.025 | –
[1], x2 = 0.4882 | 1.54 ± 0.025 | –
[1], x2 = 0.5339 | 1.55 ± 0.026 | –
[1], x2 = 0.5841 | 1.55 ± 0.026 | –
[1], x2 = 0.6332 | 1.51 ± 0.025 | –
[1], x2 = 0.6564 | 1.47 ± 0.024 | –
[1], x2 = 0.6775 | 1.43 ± 0.024 | –
[1], x2 = 0.6925 | 1.4 ± 0.023 | –
[1], x2 = 0.7364 | 1.28 ± 0.021 | –
[1], x2 = 0.7802 | 1.13 ± 0.019 | –
[1], x2 = 0.8254 | 0.955 ± 0.016 | –
[1], x2 = 0.8702 | 0.758 ± 0.013 | –
[1], x2 = 0.9163 | 0.53 ± 0.01 | –
[1], x2 = 0.9613 | 0.266 ± 0.0061 | –
[2], x2 = 0.0553 | – | 2.18e-07 ± 1.7e-08
[2], x2 = 0.1314 | – | 4.88e-07 ± 1.8e-08
[2], x2 = 0.2286 | – | 7.67e-07 ± 1.9e-08
[2], x2 = 0.3064 | – | 9.41e-07 ± 2e-08
[2], x2 = 0.3982 | – | 1.105e-06 ± 2.1e-08
[2], x2 = 0.4702 | – | 1.178e-06 ± 2.1e-08
[2], x2 = 0.5353 | – | 1.203e-06 ± 2.1e-08
[2], x2 = 0.6003 | – | 1.177e-06 ± 2.1e-08
[2], x2 = 0.6545 | – | 1.134e-06 ± 2.1e-08
[2], x2 = 0.7057 | – | 1.072e-06 ± 2e-08
[2], x2 = 0.7518 | – | 9.93e-07 ± 2e-08
[2], x2 = 0.7964 | – | 8.81e-07 ± 2e-08
[2], x2 = 0.8358 | – | 7.55e-07 ± 1.9e-08
[2], x2 = 0.8729 | – | 6.38e-07 ± 1.8e-08
[2], x2 = 0.9066 | – | 4.97e-07 ± 1.8e-08
[2], x2 = 0.9396 | – | 3.51e-07 ± 1.7e-08
[2], x2 = 0.9702 | – | 2.08e-07 ± 1.6e-08

CCCCCOC(=O)CC [pentyl propanoate] + CCCCCCCCCCCCCCC
Conditions | excess molar enthalpy [kJ/mol] | excess molar volume [m3/mol]
[1], x1 = 0.0757 | 0.277 ± 0.006 | –
[1], x1 = 0.1563 | 0.519 ± 0.0097 | –
[1], x1 = 0.2383 | 0.728 ± 0.013 | –
[1], x1 = 0.3152 | 0.888 ± 0.015 | –
[1], x1 = 0.3915 | 0.995 ± 0.017 | –
[1], x1 = 0.4596 | 1.05 ± 0.018 | –
[1], x1 = 0.52 | 1.06 ± 0.018 | –
[1], x1 = 0.5607 | 1.05 ± 0.018 | –
[1], x1 = 0.5843 | 1.03 ± 0.018 | –
[1], x1 = 0.6262 | 0.988 ± 0.017 | –
[1], x1 = 0.6747 | 0.921 ± 0.016 | –
[1], x1 = 0.7264 | 0.836 ± 0.015 | –
[1], x1 = 0.7806 | 0.727 ± 0.013 | –
[1], x1 = 0.8352 | 0.59 ± 0.011 | –
[1], x1 = 0.892 | 0.417 ± 0.0081 | –
[1], x1 = 0.9477 | 0.224 ± 0.0052 | –
[2], x1 = 0.0451 | – | 1.37e-07 ± 1.6e-08
[2], x1 = 0.1011 | – | 2.83e-07 ± 1.7e-08
[2], x1 = 0.1866 | – | 4.41e-07 ± 1.8e-08
[2], x1 = 0.2665 | – | 5.63e-07 ± 1.8e-08
[2], x1 = 0.341 | – | 6.68e-07 ± 1.9e-08
[2], x1 = 0.4128 | – | 7.28e-07 ± 1.9e-08
[2], x1 = 0.478 | – | 7.64e-07 ± 1.9e-08
[2], x1 = 0.5422 | – | 7.75e-07 ± 1.9e-08
[2], x1 = 0.5989 | – | 7.59e-07 ± 1.9e-08
[2], x1 = 0.6522 | – | 7.35e-07 ± 1.9e-08
[2], x1 = 0.7029 | – | 6.74e-07 ± 1.9e-08
[2], x1 = 0.7542 | – | 6.2e-07 ± 1.8e-08
[2], x1 = 0.7997 | – | 5.33e-07 ± 1.8e-08
[2], x1 = 0.8438 | – | 4.51e-07 ± 1.8e-08
[2], x1 = 0.8845 | – | 3.62e-07 ± 1.7e-08
[2], x1 = 0.924 | – | 2.42e-07 ± 1.7e-08
[2], x1 = 0.9627 | – | 1.57e-07 ± 1.6e-08

CCCCCOC(=O)CC [pentyl propanoate] + CCCCCCCCCCC
Conditions | excess molar enthalpy [kJ/mol] | excess molar volume [m3/mol]
[1], x1 = 0.0724 | 0.248 ± 0.0055 | –
[1], x1 = 0.153 | 0.458 ± 0.0087 | –
[1], x1 = 0.229 | 0.62 ± 0.011 | –
[1], x1 = 0.3051 | 0.751 ± 0.013 | –
[1], x1 = 0.3748 | 0.826 ± 0.014 | –
[1], x1 = 0.4452 | 0.863 ± 0.015 | –
[1], x1 = 0.5015 | 0.863 ± 0.015 | –
[1], x1 = 0.5466 | 0.843 ± 0.015 | –
[1], x1 = 0.556 | 0.838 ± 0.015 | –
[1], x1 = 0.6046 | 0.802 ± 0.014 | –
[1], x1 = 0.6573 | 0.748 ± 0.013 | –
[1], x1 = 0.7137 | 0.674 ± 0.012 | –
[1], x1 = 0.7726 | 0.585 ± 0.011 | –
[1], x1 = 0.8314 | 0.468 ± 0.0088 | –
[1], x1 = 0.8897 | 0.329 ± 0.0067 | –
[1], x1 = 0.9449 | 0.182 ± 0.0045 | –
[2], x1 = 0.079 | – | 1.89e-07 ± 1.6e-08
[2], x1 = 0.1498 | – | 3.48e-07 ± 1.7e-08
[2], x1 = 0.2179 | – | 4.36e-07 ± 1.8e-08
[2], x1 = 0.2836 | – | 5.2e-07 ± 1.8e-08
[2], x1 = 0.3484 | – | 5.69e-07 ± 1.8e-08
[2], x1 = 0.4116 | – | 6.03e-07 ± 1.8e-08
[2], x1 = 0.4733 | – | 6.14e-07 ± 1.8e-08
[2], x1 = 0.5329 | – | 6.13e-07 ± 1.8e-08
[2], x1 = 0.5902 | – | 5.99e-07 ± 1.8e-08
[2], x1 = 0.6462 | – | 5.83e-07 ± 1.8e-08
[2], x1 = 0.7023 | – | 5.24e-07 ± 1.8e-08
[2], x1 = 0.7545 | – | 4.67e-07 ± 1.8e-08
[2], x1 = 0.8065 | – | 3.79e-07 ± 1.7e-08
[2], x1 = 0.8561 | – | 3.1e-07 ± 1.7e-08
[2], x1 = 0.9045 | – | 2.2e-07 ± 1.7e-08
[2], x1 = 0.9538 | – | 1.21e-07 ± 1.6e-08
